The subject of this assay is influenza virus strain A/Kaw/86.

Here are results for 1 compound from patent US6037348A (priority 1997, dated 2000).

The structures appear in SMILES notation.

In the case of `COC(=O)[C@@]1(C)CCC[C@]2(C)c3cc(OC)ccc3C(=O)C[C@@H]12` [COMPOUND A], the “plaque morphology of mutant A2” value is “altered plaque morphology”.
